One experiment has as its target T1, human receptor OR8H3 (Homo sapiens, UniProt Q8N146).
T1 construct: The receptors were tagged with a FLAG®-Rho tag combination; expressed in transfected cells
T1 sequence (Q8N146 1-312): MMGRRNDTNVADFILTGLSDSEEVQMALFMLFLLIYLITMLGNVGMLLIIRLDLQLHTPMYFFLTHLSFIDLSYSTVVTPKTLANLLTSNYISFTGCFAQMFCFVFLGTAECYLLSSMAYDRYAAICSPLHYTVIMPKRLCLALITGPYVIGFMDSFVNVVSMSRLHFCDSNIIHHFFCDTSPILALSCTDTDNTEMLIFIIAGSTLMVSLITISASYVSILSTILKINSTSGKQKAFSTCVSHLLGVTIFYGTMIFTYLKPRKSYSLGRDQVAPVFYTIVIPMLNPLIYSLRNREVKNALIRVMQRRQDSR
The experiment in a line: cell-based dose-response, Ca2+ increase (Calcium 5 dye, FLIPR), HEK293T line stably expressing FLAG-Rho tagged receptor with human Gα15. Particulars: FIG. 3, Example 3, SEQ ID NO: 34, stable HEK293T. As for the experimental part: (§1) Functional dose-response experiments were performed to evaluate the level of DMTS activity of the modified cell lines expressing individual putative DMTS receptors. A cell line stably expressing a human receptor was generated in a HEK293T cell line for each of the following human receptors: OR2L13, OR4C15, OR5AC2, OR8H3, OR11G2 or OR52N2. The receptors were tagged with a FLAG®-Rho tag combination and stably co-expressed with the human G-protein alpha subunit Gals for the cell based assay. Co-expression of the human Gals activates the Gq transduction pathway that leads to an internal Ca^2+ increase upon binding to the appropriate ligand. Receptors were exposed to increasing concentrations of DMTS. Odorant-induced activity was detected by measuring the Ca^2+ increase in the cytosol using a calcium sensitive fluorescent dye (Molecular Devices, Calcium 5 dye, cat. R8186) and measuring the change in Relative Fluorescence Ratio (RFU) using a fluorometric imaging plate reader (Molecular Devices, FLIPR) following odorant exposure. […] A cell line lacking a receptor was used as a control for non-specific activity at high compound concentrations (‘No receptor’). The activity levels are reported by the potency of the DMTS induced-response for each receptor as a measure of the EC50 value.

A further experiment has as its target T2, human receptor OR52N2 (Homo sapiens, UniProt Q8NGI0).
T2 construct: The receptors were tagged with a FLAG®-Rho tag combination; expressed in transfected cells
T2 sequence (Q8NGI0 1-321): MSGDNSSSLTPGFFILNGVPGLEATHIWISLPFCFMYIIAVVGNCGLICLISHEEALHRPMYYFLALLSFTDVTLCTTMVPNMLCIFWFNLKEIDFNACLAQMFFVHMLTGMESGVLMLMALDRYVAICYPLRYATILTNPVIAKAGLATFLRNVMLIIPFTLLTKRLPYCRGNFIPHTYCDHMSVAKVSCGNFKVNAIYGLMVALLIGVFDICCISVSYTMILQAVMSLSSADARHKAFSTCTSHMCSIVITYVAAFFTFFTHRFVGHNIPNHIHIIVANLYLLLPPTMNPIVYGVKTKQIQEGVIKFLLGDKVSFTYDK
The description is as above. Particulars: FIG. 3, Example 3, SEQ ID NO: 38, stable HEK293T. As for the experimental part:
as §1

The target of a further experiment is T3, OR4S2 (Homo sapiens, UniProt Q8NH73).
T3 sequence (Q8NH73 1-311): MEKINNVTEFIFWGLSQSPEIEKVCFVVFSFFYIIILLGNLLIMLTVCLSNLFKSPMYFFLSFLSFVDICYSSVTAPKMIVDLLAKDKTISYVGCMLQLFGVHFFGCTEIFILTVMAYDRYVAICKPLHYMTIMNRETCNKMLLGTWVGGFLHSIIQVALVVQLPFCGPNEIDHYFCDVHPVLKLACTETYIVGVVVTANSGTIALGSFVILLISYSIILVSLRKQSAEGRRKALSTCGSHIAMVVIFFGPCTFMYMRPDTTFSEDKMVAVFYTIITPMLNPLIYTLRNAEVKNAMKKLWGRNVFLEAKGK
Briefly: cell-based dose-response, cAMP increase by HTRF, HEK293T cells (endogenous RTP1 activated) co-transfected with human Golf, Rho-FLAG tagged receptor. On the set-up: the human receptors were tagged with a Rho-FLAG® tag combination; expressed in transfected cells. As for the experimental part:
(§2) Functional dose-response experiments were performed to evaluate the level of DMTS activity of the modified cell line expressing individual putative DMTS receptors. Using a cell-based assay, mouse receptor Olfr1193, Olfr1093, Olfr1097, Olrf166, Olfr169, Olfr738 and Olfr742, and human receptor OR4S2 and OR52N5 were tested in an HEK293T cell line wherein the endogenous RTP1 gene has been activated and the odorant receptor chaperone protein was expressed (described in WO2016/201153). The mouse receptor genes were tagged with a Lucy-FLAG®-Rho tag combination and the human receptors were tagged with a Rho-FLAG® tag combination resulting in a tag:receptor fusion protein for the cell based assay. Receptor genes were co-transfected with the canonical olfactory human G-protein alpha subunit Golf gene and were exposed to increasing concentrations of the malodor odorant. Co-expression of the human Golf activates the Gs transduction pathway that leads to an internal cAMP increase upon binding to the appropriate ligand. Odorant-induced activity was detected by measuring the cAMP increase in the cytosol using an Homogeneous Time Resolved Fluorescence (HTRF) based kit (CisBio, cAMP dynamic 2 kit, cat. 62AM4PEJ). […]
On the technique in general: Time-resolved FRET reads energy transfer from a long-lived donor to a nearby acceptor.

Experiment [1] has as its system cells that do not express the odorant receptors (HEK293T). Briefly: Mock transfection control experiment (Example 5). The format is cell-based. On the procedure:
as §2

Turning to `CSSSC` [DMTS, dimethyl trisulfide], the concentration giving a half-maximal response (EC50) at human receptor OR8H3 stood at 62 µM; at human receptor OR52N2 it was 5 µM; on OR4S2 (FIG. 2, Example 2, SEQ ID NO: 42), 2 µM; at OR4S2 (FIG. 5, Example 5, SEQ ID NO: 42), 0.325 µM. The “activity upon exposure in mock transfected cells” value in experiment [1] is “did not show activity”.

Broadly, the EC50 is the concentration that produces a half-maximal response.

The record behind these values is patent US11787847B2, “Method of identifying malodor modulating compounds” (FIRMENICH SA, priority 2017, dated 2023).
